Experimental data published in ChEMBL document CHEMBL4673260, “Pyridine alkaloids with activity in the central nervous system” (Bioorg Med Chem, 2020).

Key:
PC-12 [1] = experiment: Induction of neurite outgrowth in rat PC-12 cells at 33 uM incubated for 24 hrs by phase contrast microscopic analysis relative to control; format: functional
PC-12 [2] = experiment: Induction of neurite outgrowth in rat PC-12 cells at 3.3 uM incubated for 24 hrs by phase contrast microscopic analysis relative to control; format: functional
PC-12 [3] = experiment: Induction of neurite outgrowth in rat PC-12 cells at 10 uM incubated for 24 hrs by phase contrast microscopic analysis relative to control; format: functional
[4] = Toxicity in iv dosed Swiss-Webster mouse by up-and-down method; format: organism-based; settings: in vivo
[5] = biological target: T1, Neuronal acetylcholine receptor subunit alpha-7 (Rattus norvegicus, UniProt Q05941); experiment: Displacement of 125I-alpha-bungarotoxin from rat brain alpha7 nAChR by radioligand binding assay
[6] = biological target: T1, Neuronal acetylcholine receptor subunit alpha-7; experiment: Agonist activity at rat brain alpha7 nAChR
Rattus norvegicus [7] = species on record: Rattus norvegicus; experiment: Displacement of [3H]-Cytisine from rat cerebral cortex nAChR at 10 uM by radioligand binding assay relative to control; settings: filed as antagonist
[8] = biological target: T2, Muscarinic acetylcholine receptor M1 (Rattus norvegicus) (UniProt P08482); settings: filed as antagonist, time 60.0 min
T2 sequence (whole entry): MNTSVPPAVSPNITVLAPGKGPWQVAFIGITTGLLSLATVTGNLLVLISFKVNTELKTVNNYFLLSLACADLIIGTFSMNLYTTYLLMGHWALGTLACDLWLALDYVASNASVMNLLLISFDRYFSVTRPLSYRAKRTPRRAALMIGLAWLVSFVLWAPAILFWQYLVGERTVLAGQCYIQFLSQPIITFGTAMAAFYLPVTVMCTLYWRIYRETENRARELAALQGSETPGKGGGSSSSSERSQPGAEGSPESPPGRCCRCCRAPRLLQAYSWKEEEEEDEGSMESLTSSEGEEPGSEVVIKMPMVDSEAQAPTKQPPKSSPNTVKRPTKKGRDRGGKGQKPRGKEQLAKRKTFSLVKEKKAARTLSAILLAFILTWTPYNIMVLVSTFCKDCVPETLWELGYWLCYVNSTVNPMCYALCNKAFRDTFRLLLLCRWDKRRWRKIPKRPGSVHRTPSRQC

[9] = biological target: T3, Neuronal acetylcholine receptor; alpha4/beta2 (Homo sapiens, UniProt P17787+P43681); experiment: Agonist activity at human alpha4beta2 nAChR expressed in human K177 cell membrane assessed as increase in 86-rubidium efflux incubated for 5 mins by gamma counting method; format: cell membranes; settings: K177cell line, filed as agonist
[10] = biological target: T2, Muscarinic acetylcholine receptor M1 (Rattus norvegicus); settings: filed as antagonist, time 40.0 min
Torpedo = experiment: Agonist activity at Torpedo alpha1beta1deltagamma nACHR; settings: filed as agonist
[11] = biological target: Neuronal acetylcholine receptor; alpha3/beta4 (Homo sapiens) (UniProt P30926+P32297); experiment: Agonist activity at human alpha3beta4 nAChR expressed in mouse/rat hybrid F11 cells assessed as increase in rubidium-86 efflux; format: cell-based; settings: filed as agonist
[12] = biological target: T2, Muscarinic acetylcholine receptor M1 (Rattus norvegicus); experiment: Displacement of [3H]-Pirenzepine from rat cerebral cortex Muscarinic M1 receptor at 10 uM by radioligand binding assay relative to control; settings: filed as antagonist
[13] = biological target: Neuronal acetylcholine receptor subunit alpha-7 (Homo sapiens, UniProt P36544); settings: filed as agonist
Description: Agonist activity at human alpha7 nAChR (unknown origin)

[14] = biological target: T3, Neuronal acetylcholine receptor; alpha4/beta2; experiment: Agonist activity at human brain alpha4beta2 nAChR expressed in CHO cells assessed as maximal receptor response by patch clamp electrophysiological assay relative to control; format: cell-based
[15] = biological target: T3, Neuronal acetylcholine receptor; alpha4/beta2; experiment: Potency index, ratio of nicotine I-max to compound I-max for human brain alpha4beta2 nAChR expressed in CHO cells; format: cell-based
[16] = biological target: T3, Neuronal acetylcholine receptor; alpha4/beta2
Description: Agonist activity at human brain alpha4beta2 nAChR expressed in CHO cells by patch clamp electrophysiological assay

[17] = biological target: T3, Neuronal acetylcholine receptor; alpha4/beta2; experiment: Potency index, ratio of nicotine EC50 to compound EC50 for human brain alpha4beta2 nAChR expressed in CHO cells; format: cell-based
Rattus norvegicus [18] = species on record: Rattus norvegicus; experiment: Potentiation of morphine-induced analgesia in rat relative to control; format: functional
[19] = Toxicity in ip dosed albino rat; format: organism-based; settings: in vivo
Rattus norvegicus [20] = species on record: Rattus norvegicus; experiment: Potentiation of diphenylhydantoin-induced anticonvulsant activity in rat relative to control; format: functional
Rattus norvegicus [21] = experiment: Protection against pentylenetetrazol-induced convulsion in rat at 50 to 100 mg/kg, ip relative to control; format: functional; settings: dose 50-100 mg/kg
Mus musculus [22] = species on record: Mus musculus; experiment: Antipsychotic activity in mouse assessed as reduction in amphetamine-induced toxicity; format: functional; design: scale not given: the % may be the effect or the level left
Mus musculus [23] = species on record: Mus musculus; experiment: Antipsychotic activity in trained mouse assessed as reduction in ability of mouse to remain on rotating rod; format: functional
Mus musculus [24] = species on record: Mus musculus; experiment: Antiaggressive activity in mouse assessed as reduction in foot shock induced fighting behavior; format: functional; design: scale not given: the % may be the effect or the level left
Mus musculus [25] = species on record: Mus musculus; experiment: Antipsychotic activity in albino mouse assessed as potentiation of hexobarbital-induced sleeping time; format: functional
Acetylcholinesterase = Acetylcholinesterase (Electrophorus electricus, UniProt O42275)
[26] = biological target: Neuronal acetylcholine receptor; alpha4/beta2 (Rattus norvegicus, UniProt P09483+P12390)
[27] = biological target: T1, Neuronal acetylcholine receptor subunit alpha-7
Description: Displacement of [3H]MLA from rat alpha7 nAChR by liquid scintillation counting

[28] = In vivo inhibition of DBH in human assessed as reduction in 3-methoxy-4-hydroxy-phenylglycol level in cerebrospinal fluid at 1.12g administered for 10 to 20 days; format: functional; settings: time 10-20 day
[29] = In vivo inhibition of DBH in rat assessed as norepinephrine expression in rat brain at 100 mg/kg, ip administered as single dose measured after 3 hrs by spectrophotofluorometric analysis (reference value: 0.22 ug/g); format: functional, organism-based
[30] = biological target: T4, Dopamine beta-hydroxylase (Bos taurus) (UniProt P15101); experiment: Inhibition of bovine adrenal medulla DBH at 0.005 uM relative to control
T4 sequence (whole entry): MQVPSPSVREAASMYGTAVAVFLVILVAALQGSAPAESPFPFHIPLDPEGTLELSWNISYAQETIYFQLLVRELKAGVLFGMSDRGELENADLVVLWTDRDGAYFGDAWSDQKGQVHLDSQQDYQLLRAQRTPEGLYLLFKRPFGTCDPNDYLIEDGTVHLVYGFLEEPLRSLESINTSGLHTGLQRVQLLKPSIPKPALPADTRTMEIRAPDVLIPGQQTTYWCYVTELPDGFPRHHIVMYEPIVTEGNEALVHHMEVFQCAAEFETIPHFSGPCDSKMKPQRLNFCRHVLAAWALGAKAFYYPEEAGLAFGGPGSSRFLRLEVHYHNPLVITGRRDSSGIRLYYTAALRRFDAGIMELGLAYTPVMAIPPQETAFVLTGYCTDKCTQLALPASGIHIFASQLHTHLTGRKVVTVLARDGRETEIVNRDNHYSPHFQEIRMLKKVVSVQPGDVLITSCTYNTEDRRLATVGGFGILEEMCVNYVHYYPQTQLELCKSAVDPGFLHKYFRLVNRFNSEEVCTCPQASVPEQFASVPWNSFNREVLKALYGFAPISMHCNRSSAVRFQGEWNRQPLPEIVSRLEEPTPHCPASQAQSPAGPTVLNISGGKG

[31] = biological target: T4, Dopamine beta-hydroxylase (Bos taurus); experiment: Inhibition of bovine adrenal medulla DBH at 1 uM relative to control
[32] = In vivo inhibition of DBH in rat assessed as norepinephrine expression in rat brain at 100 mg/kg, ip administered as single dose measured after 3 hrs by spectrophotofluorometric analysis (reference value: 0.42 ug/g); format: functional, organism-based
[33] = biological target: T4, Dopamine beta-hydroxylase (Bos taurus); experiment: Inhibition of bovine adrenal medulla DBH at 0.05 uM relative to control
[34] = biological target: T4, Dopamine beta-hydroxylase (Bos taurus); experiment: Inhibition of bovine adrenal medulla DBH at 0.5 uM relative to control
[35] = biological target: Dopamine beta-hydroxylase (Bos taurus, UniProt P15101); experiment: Inhibition of bovine adrenal medulla DBH incubated for 25 mins
[36] = biological target: Neuronal acetylcholine receptor; alpha3/beta4 (Rattus norvegicus, UniProt P04757+P12392); experiment: Agonist activity at rat alpha3beta4 nAChR expressed in Xenopus laevis oocytes; format: cell-based, Oocyte
[37] = biological target: T1, Neuronal acetylcholine receptor subunit alpha-7; experiment: Agonist activity at rat alpha7 nAChR expressed in Xenopus laevis oocytes; format: cell-based, Oocyte
[38] = biological target: Acetylcholinesterase (Electrophorus electricus) (UniProt O42275); experiment: Inhibition of electric eel acetylcholinesterase using acetylthiocholine iodide as substrate by Ellman's method relative to control; settings: concentration not given here
Chain of Acetylcholinesterase (Electrophorus electricus) (O42275 24-633 limits assumed): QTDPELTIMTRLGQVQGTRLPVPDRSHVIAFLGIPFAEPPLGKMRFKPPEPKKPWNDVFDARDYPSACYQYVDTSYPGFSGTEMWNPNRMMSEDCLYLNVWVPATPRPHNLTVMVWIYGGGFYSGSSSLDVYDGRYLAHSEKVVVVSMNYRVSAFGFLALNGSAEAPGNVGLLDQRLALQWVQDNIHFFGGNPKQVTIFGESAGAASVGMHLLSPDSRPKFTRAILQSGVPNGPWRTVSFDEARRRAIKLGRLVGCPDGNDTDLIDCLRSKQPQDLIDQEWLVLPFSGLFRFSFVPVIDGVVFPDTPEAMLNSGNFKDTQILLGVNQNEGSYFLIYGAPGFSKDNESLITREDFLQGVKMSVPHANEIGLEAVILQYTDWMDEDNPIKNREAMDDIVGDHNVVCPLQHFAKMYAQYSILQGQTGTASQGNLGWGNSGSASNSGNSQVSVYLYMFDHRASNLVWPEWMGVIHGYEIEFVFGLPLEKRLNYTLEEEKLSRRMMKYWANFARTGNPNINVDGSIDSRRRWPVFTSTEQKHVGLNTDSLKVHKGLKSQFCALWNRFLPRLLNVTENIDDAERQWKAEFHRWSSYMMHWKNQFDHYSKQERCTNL

T1 sequence (Q05941 whole entry): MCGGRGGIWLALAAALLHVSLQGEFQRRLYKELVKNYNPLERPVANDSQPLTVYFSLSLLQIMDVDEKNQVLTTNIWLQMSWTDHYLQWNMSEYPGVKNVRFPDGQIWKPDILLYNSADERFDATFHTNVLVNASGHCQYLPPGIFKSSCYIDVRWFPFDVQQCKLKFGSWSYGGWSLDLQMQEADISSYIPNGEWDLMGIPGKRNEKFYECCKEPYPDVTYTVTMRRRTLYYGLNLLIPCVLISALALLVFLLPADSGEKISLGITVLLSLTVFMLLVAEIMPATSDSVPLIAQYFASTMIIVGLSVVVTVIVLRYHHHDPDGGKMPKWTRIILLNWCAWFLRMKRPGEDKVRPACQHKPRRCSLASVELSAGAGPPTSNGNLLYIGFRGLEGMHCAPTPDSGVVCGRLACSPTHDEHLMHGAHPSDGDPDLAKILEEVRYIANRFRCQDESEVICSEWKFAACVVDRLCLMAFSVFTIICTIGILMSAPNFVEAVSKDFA
Chain of Neuronal acetylcholine receptor; alpha4/beta2 (Rattus norvegicus, UniProt P09483+P12390) (P09483 whole entry): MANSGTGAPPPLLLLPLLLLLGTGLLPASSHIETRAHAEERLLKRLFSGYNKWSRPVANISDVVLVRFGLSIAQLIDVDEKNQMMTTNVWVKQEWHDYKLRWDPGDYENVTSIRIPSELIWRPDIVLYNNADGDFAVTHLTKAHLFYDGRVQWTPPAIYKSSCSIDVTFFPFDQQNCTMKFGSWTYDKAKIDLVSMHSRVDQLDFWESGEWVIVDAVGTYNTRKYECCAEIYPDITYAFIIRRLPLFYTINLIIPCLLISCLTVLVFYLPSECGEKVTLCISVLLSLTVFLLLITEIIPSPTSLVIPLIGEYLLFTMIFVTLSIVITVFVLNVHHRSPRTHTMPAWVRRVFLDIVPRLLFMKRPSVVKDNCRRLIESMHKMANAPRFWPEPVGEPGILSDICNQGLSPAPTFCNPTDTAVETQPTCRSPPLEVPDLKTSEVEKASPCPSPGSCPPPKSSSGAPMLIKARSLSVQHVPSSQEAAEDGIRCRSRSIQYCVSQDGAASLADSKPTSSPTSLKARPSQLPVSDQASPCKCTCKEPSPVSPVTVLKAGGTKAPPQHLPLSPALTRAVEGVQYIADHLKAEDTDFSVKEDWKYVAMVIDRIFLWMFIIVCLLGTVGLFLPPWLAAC
Chain of Neuronal acetylcholine receptor; alpha4/beta2 (Rattus norvegicus, UniProt P09483+P12390) (P12390 whole entry): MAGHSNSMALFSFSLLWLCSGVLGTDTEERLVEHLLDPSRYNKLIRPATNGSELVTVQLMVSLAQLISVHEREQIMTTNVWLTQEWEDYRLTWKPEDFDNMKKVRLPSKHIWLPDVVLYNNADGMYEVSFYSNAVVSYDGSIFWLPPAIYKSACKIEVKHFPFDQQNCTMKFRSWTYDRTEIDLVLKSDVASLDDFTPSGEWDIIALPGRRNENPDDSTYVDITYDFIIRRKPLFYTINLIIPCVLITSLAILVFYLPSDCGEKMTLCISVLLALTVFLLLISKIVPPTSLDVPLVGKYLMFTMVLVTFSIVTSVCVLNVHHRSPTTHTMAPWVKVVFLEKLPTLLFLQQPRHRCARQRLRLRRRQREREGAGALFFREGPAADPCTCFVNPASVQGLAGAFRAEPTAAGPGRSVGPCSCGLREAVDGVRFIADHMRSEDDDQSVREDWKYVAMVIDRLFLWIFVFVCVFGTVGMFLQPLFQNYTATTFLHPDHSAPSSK
Chain of Acetylcholinesterase (O42275 whole entry): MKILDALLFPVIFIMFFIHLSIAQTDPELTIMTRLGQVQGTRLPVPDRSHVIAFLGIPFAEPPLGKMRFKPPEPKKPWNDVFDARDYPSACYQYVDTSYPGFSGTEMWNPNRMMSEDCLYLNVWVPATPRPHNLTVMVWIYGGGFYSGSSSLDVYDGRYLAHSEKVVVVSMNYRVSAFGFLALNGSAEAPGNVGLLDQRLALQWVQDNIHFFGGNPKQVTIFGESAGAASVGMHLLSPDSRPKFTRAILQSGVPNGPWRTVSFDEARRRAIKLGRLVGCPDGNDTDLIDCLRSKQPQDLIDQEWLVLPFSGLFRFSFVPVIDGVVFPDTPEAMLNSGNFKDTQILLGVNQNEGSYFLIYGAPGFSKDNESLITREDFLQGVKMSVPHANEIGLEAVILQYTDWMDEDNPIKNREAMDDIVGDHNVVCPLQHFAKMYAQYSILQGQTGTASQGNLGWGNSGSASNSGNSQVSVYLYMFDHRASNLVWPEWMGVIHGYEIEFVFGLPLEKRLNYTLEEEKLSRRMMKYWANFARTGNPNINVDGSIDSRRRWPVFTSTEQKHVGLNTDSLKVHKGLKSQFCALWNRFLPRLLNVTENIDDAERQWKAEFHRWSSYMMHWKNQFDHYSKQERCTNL
Chain of Neuronal acetylcholine receptor; alpha3/beta4 (P04757 whole entry): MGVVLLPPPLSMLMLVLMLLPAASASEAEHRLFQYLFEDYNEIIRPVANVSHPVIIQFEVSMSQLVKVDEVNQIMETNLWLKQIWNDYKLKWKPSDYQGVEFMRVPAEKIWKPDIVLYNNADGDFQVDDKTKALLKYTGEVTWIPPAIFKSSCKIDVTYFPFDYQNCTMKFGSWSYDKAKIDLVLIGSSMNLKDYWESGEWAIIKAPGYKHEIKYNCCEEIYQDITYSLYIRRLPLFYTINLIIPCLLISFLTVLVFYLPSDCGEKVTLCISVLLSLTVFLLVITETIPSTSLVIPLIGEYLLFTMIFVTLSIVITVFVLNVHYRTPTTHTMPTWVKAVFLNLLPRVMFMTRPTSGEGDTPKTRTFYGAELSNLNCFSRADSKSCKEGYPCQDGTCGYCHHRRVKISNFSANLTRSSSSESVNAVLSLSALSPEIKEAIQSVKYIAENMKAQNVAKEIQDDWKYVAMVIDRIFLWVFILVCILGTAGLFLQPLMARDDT
Chain of Neuronal acetylcholine receptor; alpha3/beta4 (P12392 whole entry): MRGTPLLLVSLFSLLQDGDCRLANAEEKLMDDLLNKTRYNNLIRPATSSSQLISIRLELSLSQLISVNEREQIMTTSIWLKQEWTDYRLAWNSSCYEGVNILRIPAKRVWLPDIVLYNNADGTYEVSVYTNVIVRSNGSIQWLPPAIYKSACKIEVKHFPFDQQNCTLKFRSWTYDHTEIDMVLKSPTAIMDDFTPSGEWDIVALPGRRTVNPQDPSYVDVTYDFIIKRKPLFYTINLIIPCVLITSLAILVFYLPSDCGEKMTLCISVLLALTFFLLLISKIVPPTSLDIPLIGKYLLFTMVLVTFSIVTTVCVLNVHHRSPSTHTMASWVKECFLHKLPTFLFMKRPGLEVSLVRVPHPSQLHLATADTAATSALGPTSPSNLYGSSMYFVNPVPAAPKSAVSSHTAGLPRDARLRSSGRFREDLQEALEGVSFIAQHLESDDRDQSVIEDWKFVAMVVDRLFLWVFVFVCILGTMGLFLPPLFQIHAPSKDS
T3 sequence (P17787 whole entry): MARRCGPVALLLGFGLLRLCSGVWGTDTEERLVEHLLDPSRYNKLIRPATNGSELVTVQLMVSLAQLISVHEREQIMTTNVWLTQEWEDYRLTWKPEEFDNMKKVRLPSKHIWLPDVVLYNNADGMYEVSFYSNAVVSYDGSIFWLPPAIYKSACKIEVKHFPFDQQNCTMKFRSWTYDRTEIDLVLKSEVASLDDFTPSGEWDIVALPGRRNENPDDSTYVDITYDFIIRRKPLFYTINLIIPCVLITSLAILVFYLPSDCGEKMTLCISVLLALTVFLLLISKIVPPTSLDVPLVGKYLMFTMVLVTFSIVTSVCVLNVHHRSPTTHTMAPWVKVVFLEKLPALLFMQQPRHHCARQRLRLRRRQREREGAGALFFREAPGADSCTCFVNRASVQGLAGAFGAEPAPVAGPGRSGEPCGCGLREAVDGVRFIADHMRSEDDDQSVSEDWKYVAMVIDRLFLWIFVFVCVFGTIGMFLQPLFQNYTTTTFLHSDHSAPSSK
T3 sequence (P43681 whole entry): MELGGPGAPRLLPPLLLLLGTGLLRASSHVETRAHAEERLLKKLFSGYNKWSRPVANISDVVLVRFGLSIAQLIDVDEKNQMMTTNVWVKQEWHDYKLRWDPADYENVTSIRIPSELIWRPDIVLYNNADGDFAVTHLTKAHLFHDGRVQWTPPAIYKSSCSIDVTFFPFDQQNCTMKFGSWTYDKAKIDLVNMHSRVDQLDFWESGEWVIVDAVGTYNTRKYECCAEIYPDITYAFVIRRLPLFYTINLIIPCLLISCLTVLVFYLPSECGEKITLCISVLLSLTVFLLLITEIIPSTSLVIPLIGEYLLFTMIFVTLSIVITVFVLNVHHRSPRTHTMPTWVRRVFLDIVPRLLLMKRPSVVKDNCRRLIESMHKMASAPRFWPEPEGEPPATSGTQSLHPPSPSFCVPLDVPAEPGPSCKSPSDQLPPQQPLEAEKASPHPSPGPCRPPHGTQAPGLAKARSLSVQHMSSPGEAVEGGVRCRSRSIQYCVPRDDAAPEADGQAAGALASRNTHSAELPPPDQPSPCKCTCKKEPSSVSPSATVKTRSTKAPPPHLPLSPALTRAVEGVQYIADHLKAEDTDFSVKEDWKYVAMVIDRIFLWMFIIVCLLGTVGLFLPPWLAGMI

CC[C@@H](C)C[C@@H](C)/C=C(C)/C=C/C=C/C(=O)c1c(O)c(C2(O)CCC(O)CC2)cn(O)c1=O (stereo not given in full)
Activity (PC-12 [1]): 80%
Activity (PC-12 [2]): 30%
Activity (PC-12 [3]): 70%

c1cncc([C@@H]2CCCCN2)c1 [ANABASINE]
LD50 [4]: 16 mg/kg
Ki [5]: 0.39 µM
EC50 [6]: 18 µM

Clc1ccc(C2CC3CCC2N3)cn1 (stereo in doubt; (+))
inhibition (Rattus norvegicus [7]): 98%
Kapp [8]: 6.9 µM
ED50 [9]: 0.017 µM
Kapp [10]: 1.6 µM
ED50 (Torpedo): 1.6 µM
ED50 [11]: 0.019 µM
inhibition [12]: 70%
ED50 [13]: 1.1 µM

CN1CC=CC[C@H]1c1cccnc1
Imax [14]: 26%
Ratio [15]: 6
EC50 [16]: 6.2 µM
Ratio EC50 [17]: 8

C=Cc1cncc2c1CCOC2=O
Activity (Rattus norvegicus [18]): 150%
LD50 [19]: 276 mg/kg
Activity (Rattus norvegicus [20]): 60%
Activity (Rattus norvegicus [21]): 70%
Activity (Mus musculus [22]): 88%
Activity (Mus musculus [23]): 80%
Activity (Mus musculus [24]): 60%
Activity (Mus musculus [25]): 80%

C=CC1C2C=C(CO)CC1(N)c1ccc(=O)[nH]c1C2 (stereo not given)
IC50 (Acetylcholinesterase): 23.9 µM

O=c1c(O)ccc2n1CC1CNC2C1 (stereo not given)
Ki [26]: 14 µM
Ki [27]: 260 µM

CCCCc1ccc(C(=O)O)nc1 [FUSARIC ACID]
inhibition (INH) [28]: 25%
IC50 [29]: 0.1 µg/g
inhibition [30]: 20%
inhibition [31]: 92%
IC50 [32]: 0.4 µg/g
inhibition [33]: 58%
inhibition [34]: 89%
IC50 [35]: 0.05 µM

c1cncc([C@@H]2CCCN2)c1 [NORNICOTINE]
EC50 [36]: 614 µM
EC50 [37]: 17.4 µM

O=C(O)[C@H]1CCCC[C@@H]1c1c[nH]c(=O)cc1O
inhibition [38]: 57.5%
